Experiments:
[1] = both, human, in vivo
Protocol: Researchers conducted the prospective observational study and collected the hospital information and laboratory information at one tertiary hospital from January 2018 to December 2019. […] This study was approved by the Ethics Committee of The Second […] Hospital of Central South University with an approved NO. yxlb-lays-2018012. Venous blood samples (2 mL) were collected into anticoagulant tubes. […] Monitoring continued every 3 days. […] The two-dimensional separation conditions consisted of FRO C18 (100 mm × 3.0 mm, 5 μm, ANAX) and ASTON HD C18 (150 mm × 4.6 mm, 5 μm, ANAX) with the same flow rate 1.0 mL/min. […] This laboratory participated in the annual national external quality assessment scheme. […] The Child-Pugh class and MELD score were calculated based on previous criteria. The Pearson correlation and nonparametric Spearman correlation were used to study the relationship between clinical or laboratory data and Cmins during the therapy, according to the type of variables. […] The Cmins measured after withdrawal or lack of the corresponding key values of clinical or laboratory data were excluded in pairs in the bivariate correlation analysis or in rows in the multiple linear regression. For the regression analysis, the genotype of CYP2C19 was set as a dummy variable.

[2] = Voriconazole-related adverse events in Child–Pugh class C patients; format: in vivo, human
Description: Forty-three CP-C Asian patients were eligible to participate in the study (Figure 1a). The female-to-male ratio was 4/39. The mean patient age and weight were 49.35 ± 11.65 years (range, 32 to 89 years) and 61.27 ± 12.87 kg (range, 36 to 99 kg). […] The median sampling time of C0 was 5 days (interquartile range (IQR), 3 to 5 days; range, 3 to 11 days).
Researchers conducted the prospective observational study and collected the hospital information and laboratory information at one tertiary hospital from January 2018 to December 2019. […] The administration regimen is mainly under empirical treatment regimens, and the adjustment is generally based on the results of TDM. This study was approved by the Ethics Committee of The Second XiangYa Hospital of Central South University with an approved NO. yxlb-lays-2018012.
Data were extracted from medical records and laboratory information systems, including voriconazole-related information (Cmins, timing, amount, route), demographics, laboratory data, and concomitant medications (antimicrobial agents, CYP2C19 inducers, and inhibitors). The first trough concentration, the repeated measured ones and the last one of patients were recorded as C0, C1, Css, respectively. The Child–Pugh class and MELD score were calculated based on previous criteria.

[3] = CP-C patients in ICU; cited from earlier work
[4] = cited from earlier work

Decrease of Cmin in male patients compared to the female [1]: 1651 ng/mL
Decrease of concentration with a one-unit increase in PTA count [1]: 0.035 mg/L
Patients with targeted C0 reaching supratherapeutic levels with no adjusted daily dose [1]: 25.8%
Structure (SMILES): C[C@@H](c1ncncc1F)[C@](O)(Cn1cncn1)c1ccc(F)cc1F [voriconazole]
Patients with adverse events identified as voriconazole related ([2]; 20 of 43 patients, dizziness, hallucinations, visual disturbance): 46.5%
Median duration from voriconazole initiation to onset of adverse events ([2]; range, 1 to 12 days): 2 days
Change of terminal half-life (t1/2) [3]: increased about five times
Median terminal t1/2 [3]: 60.7 h
Oral bioavailability [4]: 91.6%
